Test results published in ChEMBL document CHEMBL1150716, “Cytotoxic flavonols from Gutierrezia microcephala” (1987).
≈ marks a conversion by molar mass, not a printed value.

System: P388
Assay: Cytotoxicity against mouse P388 cells
Assay type: functional
Details: read-out: ED50 (the source's name)

| Compound | EC50 [µg/mL] |
| --- | --- |
| COc1cc(-c2oc3cc(O)cc(O)c3c(=O)c2OC)ccc1O [3,3'-O-DIMETHYLQUERCETIN] | 1.7 (≈ 5.15 µM) |
| COc1cc(O)c2c(=O)c(OC)c(-c3ccc(O)c(O)c3)oc2c1 | 3.2 (≈ 9.69 µM) |
